Experimental data taken from patent publication US6737383B1, “Herbicidal oxadiazolidines” (priority 1999, dated 2004).

Experiments:
winter wheat [1] = assay: Test E winter wheat; type: in vivo, Triticum aestivum; settings: Preemergence
wild oat [2] = assay: Test B pre/postemergence wild oat; type: in vivo, Avena fatua
In short: (§1)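 Herbicidal effect was estimated by eye on a ten-point control scale after plants spent twelve to sixteen days in a greenhouse following soil or foliar treatment. Foliar sprays targeted plants at one to four leaves; all doses were formulated in a non-phytotoxic solvent with surfactant.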

green foxtail = assay: Test E green foxtail; type: in vivo, Setaria viridis; settings: Preemergence
wild oat [3] = assay: Test E wild oat; type: in vivo, Avena fatua; settings: Preemergence, 0 to 100 scale where 0 is no effect and 100 is complete control
smallflower flatsedge = assay: Test B flood test smallflower flatsedge; type: in vivo, Cyperus difformis
In short: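 Plants were grown to the 2-leaf stage before treatment with test chemical, then held in a greenhouse for twelve to sixteen days. Injury was visually rated against untreated controls on a 0–10 scale, where 0 is no effect and 10 is complete control.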

Italian ryegrass = assay: Test E Italian ryegrass; type: in vivo, Lolium multiflorum; settings: Preemergence
winter wheat [4] = assay: Test E winter wheat; type: in vivo, Triticum aestivum; settings: Postemergence
In short: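 Postemergence: spray at 1–4 leaf stage, soil 60:40 sandy loam:potting mix; solvent + surfactant formulation; greenhouse 21–28 d; visual injury vs untreated controls.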

Johnson grass = assay: Test D Johnson grass; type: in vivo, Sorghum halepense; settings: Preemergence, 0 to 100 scale, 0 no injury, 100 complete control
In short: (§2)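 Scoring used a 0–100 visual injury scale, with 0 meaning no effect and 100 complete control, assessed 14–21 days after application alongside untreated pots. Preemergence treatments went onto sandy loam surfaces of separately potted seeds within a day of sowing.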

winter barley = assay: Test E winter barley; type: in vivo, Hordeum vulgare; settings: Preemergence
blackgrass = assay: Test E blackgrass; type: in vivo, Alopecurus myosuroides; settings: Preemergence
bermuda-grass = assay: Test D bermudagrass; type: in vivo, Cynodon dactylon; settings: Preemergence, 0 to 100 scale, 0 no injury, 100 complete control
In short: as §2

itchgrass = assay: Test D itchgrass; type: in vivo, Rottboellia exaltata; settings: Preemergence, 0 to 100 scale, 0 no injury, 100 complete control
In short: as §2

soybean = assay: Test B pre/postemergence soybean; type: in vivo, Glycine max
In short: as §1

crabgrass = assay: Test B pre/postemergence crabgrass; type: in vivo, Digitaria sanguinalis
In short: as §1

wheat = assay: Test B pre/postemergence wheat; type: in vivo, Triticum aestivum
In short: as §1

[5] = Rate 500 g/ha, 0 to 100 scale where 0 is no effect and 100 is complete control
[6] = Rate 1000 g/ha, 0 to 100 scale where 0 is no effect and 100 is complete control
[7] = Postemergence, Rate 62 g/ha, scale 0 to 10, 0 is no effect, 10 is complete control
[8] = Postemergence, Rate 250 g/ha, scale 0 to 10, 0 no effect, 10 complete control
[9] = Preemergence, Rate 125 g/ha, scale 0 to 10 (0 no effect, 10 complete control)
[10] = Preemergence, Rate 250 g/ha, scale of 0 to 10 where 0 is no effect and 10 is complete control
[11] = Preemergence, Rate 500 g/ha, scale 0 (no effect) to 10 (complete control)
[12] = Rate 125 g/ha, Postemergence, scale 0 to 10, 0 no effect, 10 complete control
[13] = Preemergence, Rate 62 g/ha, scale 0 to 10, 0 is no effect, 10 is complete control

SMILES: Cc1cccc(C)c1-n1c(=O)on(C(=O)N(c2ccc(F)cc2)C(C)C)c1=O [Compound 18]
- Plant response rating, Wheat (winter) (winter wheat [1]; Rate 250 g/ha, 0 to 100 scale): 0
- Plant response rating, Wheat (winter) (winter wheat [1]; [5]): 10
- Plant response rating, Wheat (winter) (winter wheat [1]; [6]): 20
- Wild oats plant response rating (wild oat [2]; [7]): 0
- Wild oats plant response rating (wild oat [2]; [8]): 0
- Plant response rating, Wild oats (wild oat [2]; [9]): 0
- Plant response rating, Wild oats (wild oat [2]; [10]): 0
- Wild oats plant response rating (wild oat [2]; [11]): 5
- Wild oats plant response rating (wild oat [2]; [12]): 0
- Plant response rating, Green foxtail (green foxtail; Rate 250 g/ha, 0 to 100 scale): 30
- Plant response rating, Green foxtail (green foxtail; [5]): 50
- Plant response rating, Green foxtail (green foxtail; [6]): 70
- Plant response rating, Wild oat (wild oat [3]; Rate 500 g/ha): 40
- Plant response rating, Wild oat (wild oat [3]; Rate 1000 g/ha): 50
- S. Flatsedge plant response rating (smallflower flatsedge; [7]): 0
- S. Flatsedge plant response rating (smallflower flatsedge; Pre-emergence, Rate 1000 g/ha, scale 0 to 10 (0 no effect, 10 complete control)): 0
- S. Flatsedge plant response rating (smallflower flatsedge; Rate 62 g/ha, headed Pre-emergence (flood test species), scale 0 to 10 (0 no effect, 10 complete control)): 0
- S. Flatsedge plant response rating (smallflower flatsedge; Rate 125 g/ha, Postemergence section (flood test species), scale 0 to 10, 0 no effect, 10 complete control): 0
- S. Flatsedge plant response rating (smallflower flatsedge; Rate 125 g/ha, Pre-emergence, flood test species, scale 0 to 10 where 0 is no effect and 10 is complete control): 0
- S. Flatsedge plant response rating (smallflower flatsedge; Rate 250 g/ha, headed Pre-emergence (flood test species), scale 0 to 10 (0 no effect, 10 complete control)): 0
- Plant response rating, S. Flatsedge (smallflower flatsedge; Rate 500 g/ha, headed Pre-emergence (flood test species), scale 0 to 10 (0 no effect, 10 complete control)): 6
- S. Flatsedge plant response rating (smallflower flatsedge; Rate 2000 g/ha, Pre-emergence (as headed), scale 0 to 10): 0
- S. Flatsedge plant response rating (smallflower flatsedge; flood test, listed under Postemergence, Rate 250 g/ha, scale 0 to 10, 0 no effect, 10 complete control): 6
- Plant response rating, I. Ryegrass (Italian ryegrass; Rate 250 g/ha, 0 to 100 scale): 40
- Plant response rating, I. Ryegrass (Italian ryegrass; [5]): 60
- Plant response rating, I. Ryegrass (Italian ryegrass; [6]): 70
- Plant response rating, Wheat (winter) (winter wheat [4]; Rate 250 g/ha, 0 to 100 scale (0 no effect, 100 complete control)): 55
- Plant response rating, Wheat (winter) (winter wheat [4]; Rate 500 g/ha, 0 to 100 scale, 0 no effect, 100 complete control): 65
- Plant response rating Johnsongrass (Johnson grass; Rate 16 g/ha): 0
- Plant response rating Johnsongrass (Johnson grass; Rate 32 g/ha): 0
- Plant response rating Johnsongrass (Johnson grass; Rate 64 g/ha): 0
- Plant response rating Johnsongrass (Johnson grass; Rate 125 g/ha): 0
- Plant response rating, Barley (winter) (winter barley; Rate 250 g/ha, 0 to 100 scale): 20
- Plant response rating, Barley (winter) (winter barley; [5]): 30
- Plant response rating, Barley (winter) (winter barley; [6]): 50
- Plant response rating, Blackgrass (blackgrass; Rate 250 g/ha, 0 to 100 scale): 10
- Plant response rating, Blackgrass (blackgrass; [5]): 25
- Plant response rating, Blackgrass (blackgrass; [6]): 85
- Plant response rating, Bermudagrass (bermuda-grass; Rate 16 g/ha): 40
- Plant response rating, Bermudagrass (bermuda-grass; Rate 32 g/ha): 60
- Plant response rating, Bermudagrass (bermuda-grass; Rate 64 g/ha): 85
- Plant response rating, Bermudagrass (bermuda-grass; Rate 125 g/ha): 100
- Plant response rating, Itchgrass (itchgrass; Rate 16 g/ha): 0
- Plant response rating, Itchgrass (itchgrass; Rate 32 g/ha): 0
- Plant response rating, Itchgrass (itchgrass; Rate 64 g/ha): 0
- Plant response rating, Itchgrass (itchgrass; Rate 125 g/ha): 0
- Soybean plant response rating (soybean; [7]): 2
- Soybean plant response rating (soybean; [8]): 3
- Plant response rating, Soybean (soybean; [13]): 0
- Plant response rating, Soybean (soybean; [9]): 0
- Plant response rating, Soybean (soybean; [10]): 0
- Soybean plant response rating (soybean; [11]): 0
- Soybean plant response rating (soybean; [12]): 3
- Crabgrass plant response rating (crabgrass; [7]): 0
- Crabgrass plant response rating (crabgrass; [8]): 7
- Plant response rating, Crabgrass (crabgrass; [13]): 6
- Plant response rating, Crabgrass (crabgrass; [9]): 5
- Plant response rating, Crabgrass (crabgrass; [10]): 8
- Crabgrass plant response rating (crabgrass; [11]): 10
- Crabgrass plant response rating (crabgrass; [12]): 3
- Crabgrass plant response rating (crabgrass; Rate 500 g/ha, Postemergence, 0 to 10 scale (0 no effect, 10 complete control)): 9
- Wheat plant response rating (wheat; [7]): 0
- Wheat plant response rating (wheat; [8]): 0
- Plant response rating, Wheat (wheat; [13]): 0
- Plant response rating, Wheat (wheat; [9]): 0
- Plant response rating, Wheat (wheat; [10]): 0
- Wheat plant response rating (wheat; [11]): 0
- Wheat plant response rating (wheat; [12]): 0
